How the values were obtained:
Type in all cases: in vivo
angiogenesis by b-FGF [1] = experiment: Rat sponge model with b-FGF, hemoglobin content of sponge (Experimental Example 2); conditions: for Hemoglobin in sponge at 4 days after implanting: mean ± standard error
Description: (§1) In the same manner as in Experimental Example 1, as the promoter of the present invention, the AS-containing lipid emulsion of Example 4 was diluted with a 10% lipid emulsion (Intralipos®, manufactured by the Green Cross Corporation, produced and sold by Yoshitomi Pharmaceutical Industries, Ltd. since Apr. 1, 1998) and used. For the vehicle administration control group, the above-mentioned 10% lipid emulsion alone was used.
(§2) Using a hemostatic gelatin sponge infiltrated with physiological saline containing 0.1% BSA (bovine serum albumin) or b-FGF solution (b-FGF 1 mg/ml solution, 100 μl, diluted 10-fold with physiological saline containing 0.1% BSA), and in the same manner as in Experimental Example 1, rat sponge models (6-8 animals per group) were prepared. The vehicle and AS were bolus administered via the tail vein once a day at the volume of 1 ml/kg from the day of sponge implanting to day 4. After 4 days from the implanting, the surface of the sponge was photographed, and the amount of the hemoglobin in the sponge was calculated in the same manner as in Experimental Example 1.
For the evaluation of the angiogenic effect, a multiple comparison test (group 1 versus groups 2, 3) by Dunnett method was performed to examine significant difference, using the vehicle alone administration group (BSA-containing physiological saline in sponge +10% lipid emulsion intravenous injection) as a control. For the evaluation of the relationship between AS and b-FGF, an unpaired t-test (group 2 versus group 3) was performed using the b-FGF alone administration group as a control to examine significant difference. The significance was ascribed at less than 5% risk rate.

angiogenesis by b-FGF [2] = experiment: Rat sponge model with b-FGF, observation of photograph of sponge surface (Experimental Example 2)
Description: as §1, §2

angiogenesis [3] = experiment: Rat sponge model, hemoglobin content of sponge (Experimental Example 1)
Description: as §1, with “As” for “In the same manner as in Experimental Example 1, as”, “April” for “Apr.”
(§3) Rats were anesthetized and the dorsal median line was incised for about 1 cm and an air pocket was made subcutaneously at about 2.5 cm toward the tail side with a Kocher clamp. A hemostatic gelatin sponge (Spongel®, 1.0×1.0×0.5 cm; manufactured by Yamanouchi Pharmaceutical Co., Ltd.) infiltrated with physiological saline was implanted therein to prepare rat sponge models.
(§4) The incisive region was sutured, antisepticized and intramulscular injection of an antibiotic was given, after which the rats were returned to the breeding cages. Each preparation was bolus administered via the tail vein once a day from the day of sponge implanting to day 4. After 4 days from the implanting, 8 rats per group were sacrificed. The back was opened, and the surrounding tissue was removed trying not to damage the implanted sponge and the surface of the sponge was photographed. All the sponges were taken out and a 0.1M aqueous ammonia (2 ml) was added. The sponges were stood for 4 hr to extract hemoglobin in the sponge. Hemoglobin in the extract (100 μl) was quantitated using an assay kit (hemoglobin B-TESTWAKO; manufactured by Wako Pure Chemical Industries, Ltd.). The amount of the hemoglobin in the sponge was calculated and used as the index of angiogenesis.
For the evaluation of the angiogenic effect, a multiple comparison test by Dunnett method was performed to examine significant difference, using the vehicle administration group as a control. The significance was ascribed at less than 5% risk rate.

angiogenesis [4] = experiment: Rat sponge model, observation of photograph of sponge surface (Experimental Example 1); conditions: AS administration group; after 4 days; visual observation
Description: as §1, with “As” for “In the same manner as in Experimental Example 1, as”, “April” for “Apr.”
as §3
as §4, with “The back was opened, and the surrounding tissue was removed trying not to damage the implanted sponge and the surface of the sponge was photographed. All the sponges were taken out and a 0.1M aqueous ammonia (2 ml) was added. The sponges were stood for 4 hr to extract hemoglobin in the sponge.” left out

| Molecule | hemoglobin content of sponge (angiogenesis by b-FGF [1]; b-FGF alone administration group, after 4 days, result in words) | Hemoglobin in sponge at 4 days after implanting (angiogenesis by b-FGF [1]; group 2: b-FGF 1 μg/sponge, 10% lipid emulsion i.v. 1 ml/kg, n 8, vehicle alone 6.5 ± 0.7) | blood vessels on sponge surface (FIG. 4) (angiogenesis by b-FGF [2]; b-FGF administration group (group 2)) | Hemoglobin in sponge at 4 days after implanting (angiogenesis [3]; AS 3 μg/kg i.v. bolus via tail vein once a day to day 4, mean ± standard error, P < 0.05 vs vehicle 1.5 ± 0.9 (Dunnett)) | hemoglobin content compared with the vehicle administration group (angiogenesis [3]; AS 3 μg/kg i.v. bolus, consecutive, result in words) | promotion of angiogenesis (angiogenesis [3]; summary of hemoglobin content and photograph observation, Experimental Example 1) | blood vessels on sponge surface (FIG. 2) (angiogenesis [4]) | angiogenesis promoting effect by b-FGF (angiogenesis by b-FGF [1]; AS and b-FGF co-administered, summary) | hemoglobin content of sponge as compared with the b-FGF alone administration group (angiogenesis by b-FGF [1]; AS and b-FGF co-administration group, result in words) | Hemoglobin in sponge at 4 days after implanting (angiogenesis by b-FGF [1]; group 3: AS 3 μg/kg i.v. with b-FGF 1 μg/sponge, n 7, P < 0.05 vs b-FGF alone (unpaired t-test)) | blood vessels on sponge surface (FIG. 5) (angiogenesis by b-FGF [2]; AS and b-FGF co-administration group (group 3)) |
| --- | --- | --- | --- | --- | --- | --- | --- | --- | --- | --- | --- |
| b-FGF: growth factor, basic fibloblast growth factor | increased | 11.8 ± 0.9 mg/sponge | a number of blood vessels were observed on the surface of the sponge, showing formation of a blood vessel network |  |  |  |  |  |  |  |  |
| CCCCC[C@H](O)/C=C/[C@@H]1C(CCCCCCC(=O)OCCCC)=C(OC(=O)CCC)C[C@H]1O [AS, butyl 9-butyryloxy-11α,15S-dihydroxyprosta-8,13E-dien-1-oate] |  |  |  | 4.4 ± 0.8 mg/sponge | increased the hemoglobin content compared with the vehicle administration group and a significant difference was observed | promoted angiogenesis | a noticeable blood vessel network that allows visual observation was found, showing superior angiogenesis | potentiated | increased significantly | 20.7 ± 3.1 mg/sponge | more noticeable formation of a blood vessel network was observed, with larger blood vessel diameters |
